# Target: T1, human GPR68 (Homo sapiens, UniProt Q15743)
# T1 construct: host or cells: HEK293T
# Test: GPR68 cAMP GloSensor assay
# Format: cell-based
# Conditions: HEK293T cells transiently transfected with GPR68 and GloSensor-22F cAMP reporter; activation at pH 6.0; 10 μM top, 3-fold, 10 points, in duplicate
# Source text: The assay was developed to provide a quick screen assay to determine the potency and EC50s/IC50s of compounds against the GPR68 receptor with transient transfection cell.
# GPR68 senses extracellular pH.
# To determine the compound activity in GPR68 inhibition, an GPR68 dependent cAMP assay was developed and validated. Principle of this method: Expression of GPR68 in HEK293T cells by transient transfection of a GPR68-expression vector and a cAMP-sensing reporter vector (GloSensor, Promega). The transfected cells as a pool will be re-plated uniformly in assay plates, to minimize the in-experiment variation. The GPR68 receptor signal will be measured via Gs to CAMP increase as indicated by the Luc activation under basal (pH8.4 or pH7.4) or activated (pH6.5 or pH6.0) states.
# • GloSensor™ CAMP Reagent (Promega, Cat #E1291) • human GPR68 NM_001177676.2_pcDNA3.1 (+)(Genscript) • The GloSensor™-22F CAMP Reporter Vector (Promega, Cat #E2301) • DMEM (Gibco, Cat #11995065) • FBS, Qualified, New Zealand origin (Gibco, Cat #10091148) • Penicillin-Streptomycin (Gibco, Cat #15140122) • 0.25% Trypsin-EDTA (Gibco, Cat #25200056) • PBS (Gibco, Cat #10010049) • 1x HBSS (Gibco, Cat #14175079) • HEPES (Gibco, Cat #15630080) • MES (Sigma, Cat #M2933-25G) • TAPS (Sigma, Cat #T5316-25G) • NaOH (Sigma, Cat #221465) • BSA (Sigma, Cat #B2064-50G) • Opti-MEM (Gibco, Cat #31985070) • DMSO (Sigma, Cat #D5879-1L) • FuGene HD Transfection Reagent (Promega, Cat #E2311)
# • 1) Detached cells with 0.25% Trypsin when the cell confluence was about 80%. • 2)Resuspended the detached cells in 3 ml fresh cell culture medium. Counted the cell number and diluted the cells to proper density. • 3) Seeded 1.5∧10∧6 cells into 6-well plate (Cat. #3516) in 2 ml per well contained the need to transfection well so that the cells were 80-85% confluent at the time of transfection. • 4) Incubated the cells at 37° C. in a CO2 incubator for 6 hours.
# • 5) Gently aspirated off the DMEM medium. Then added the Opti-MEM® Medium without serum into 6-well plate. • 6) Added 2.5 μg GPR68 and 2.5 μg GloSensor-22F in 1:1 ratio and 12 μl FuGeneHD into 120 μl of Opti-MEM® Medium without serum. Mixed gently and incubated for 15 min at room temperature. • 7) After the 15-minute incubation, added 137 μl of DNA-Transfection Reagent complexes to each well containing cells and medium. Mixed gently by rocking the plate back and forth. • 8) Incubated the cells at 37° C. in a co2 incubator for 19 h until they were ready to assay for transgene expression.
# Seeded 40000 cells/well, 100 μl/well in 96-well plate (Cat. #3610) with complete DMEM medium; incubated overnight.
# • 1) Compounds were solubilized in 100% DMSO to a concentration of 50 mM. • 2) Prepared compound DMSO solutions in 384 LDV echo plate: top concentration was 10 mM, 3-fold, 10 dose-response, so intermediate concentrations were created by serially diluting by […] beginning from the 10000 μM. 5 μL tested intermediate compounds+10 μl DMSO solutions were transferred to 384 LDV echo plate. Centrifuged the echo plate at 1000 rpm for 30s before Echo procedure. Compounds were transferred 180 nL volume by Echo550 to a 96-assay plate (corning, Cat #3599), to make compound 10 concentration points in duplicate (the final top concentration was 10 μM, 3-fold, 10 dose-response, in duplicate). Final DMSO concentration is 0.1%. • 3) For the Low control wells and High control wells, 180 nL DMSO were transferred by ECHO. • 4) Layout of assay plate 180 nL/well of compounds in 100% DMSO 180 nL/well DMSO in Low control wells and High control wells was as shown below. Compounds were prepared into assay plate at […] in 100% DMSO, the assay volume was […], and final DMSO concentration was 0.1%.
# • 1)Removed culture medium, added 100 μL/well GloSensor (50×) to cells, then incubated for 2 h at room temperature.
# • 2) Pre-read Luminescence at −5 min for background after 2 h incubation.
# T1 sequence (Q15743 whole entry): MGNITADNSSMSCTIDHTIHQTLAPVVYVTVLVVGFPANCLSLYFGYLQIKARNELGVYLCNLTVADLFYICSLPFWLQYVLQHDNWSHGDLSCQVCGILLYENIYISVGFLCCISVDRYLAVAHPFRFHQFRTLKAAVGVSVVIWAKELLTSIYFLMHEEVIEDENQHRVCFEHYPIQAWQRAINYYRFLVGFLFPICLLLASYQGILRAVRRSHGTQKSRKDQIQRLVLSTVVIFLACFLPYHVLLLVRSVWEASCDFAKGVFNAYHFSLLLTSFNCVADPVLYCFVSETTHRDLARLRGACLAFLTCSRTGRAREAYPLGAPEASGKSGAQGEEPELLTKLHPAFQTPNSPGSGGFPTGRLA
row,Structure (SMILES),IC50 [µM]
1,O=C(/C=C/c1ccc2c(cnn2CC2CC2)c1)Nc1ncccc1F [Compound 23],17
2,"O=C(/C=C/c1ccc2c(cnn2CC2CC2)c1)Nc1ccccc1C(=O)O [Compound 6, (E)-2-(3-(1-(cyclopropylmethyl)-1H-indazol-5-yl)acrylamido)benzoic acid]",1.68
3,"O=C(/C=C/c1ccc2c(cnn2CC2CC2)c1)Nc1ccccc1-c1nnn[nH]1 [Compound 16, (E)-N-(2-(1H-tetrazol-5-yl)phenyl)-3-(1-(cyclopropylmethyl)-1H-indazol-5-yl)acrylamide]",6.9
4,"O=C(/C=C/c1ccc2c(cnn2CC2CC2)c1)Nc1ccccn1 [Compound 5, (E)-3-(1-(cyclopropylmethyl)-1H-indazol-5-yl)-N-(pyridin-2-yl)acrylamide]",1.41
5,"O=C(/C=C/c1ccc2c(cnn2CC2CC2)c1)Nc1cccnc1C(=O)O [Compound 7, (E)-3-(3-(1-(cyclopropylmethyl)-1H-indazol-5-yl)acrylamido)picolinic acid]",2.02
6,"O=C(/C=C/c1cc2cnn(CC3CC3)c2cc1F)Nc1ccccc1C(=O)O [Compound 4, (E)-2-(3-(1-(cyclopropylmethyl)-6-fluoro-1H-indazol-5-yl)acrylamido)benzoic acid]",1.29
7,O=C(/C=C/c1ccc2c(cnn2CC2CC2)c1)NC1C2CC3CC(C2)CC1C3 (centres unmarked) [Compound 19],9.7
8,O=C(/C=C/c1ccc2c(cnn2CC2CC2)c1)Nc1ccc(F)cn1 [Compound 25],14.9
9,O=C(/C=C/c1ccc2c(cnn2CC2CC2)c1)Nc1c(F)cccc1C(=O)O [Compound 36],11.5
10,"Cn1ncc2cc(/C=C/C(=O)Nc3ccccn3)ccc21 [Compound 9, (E)-3-(1-methyl-1H-indazol-5-yl)-N-(pyridin-2-yl)acrylamide]",3.46
11,"O=C(/C=C/c1ccc2c(cnn2CC2CC2)c1)Nc1ccccc1NS(=O)(=O)CC(F)(F)F [Compound 12, (E)-3-(1-(cyclopropylmethyl)-1H-indazol-5-yl)-N-(2-((2,2,2-trifluoroethyl)sulfonamido)phenyl)acrylamide]",4.49
12,CN(C)S(=O)(=O)NC(=O)c1ccccc1NC(=O)/C=C/c1ccc2c(cnn2CC2CC2)c1 [Compound 17],7.02
13,"O=C(/C=C/c1ccc2c(cnn2CC2CC2)c1)Nc1cccc(C(=O)O)n1 [Compound 10, (E)-6-(3-(1-(cyclopropylmethyl)-1H-indazol-5-yl)acrylamido)picolinic acid]",3.82
14,"Cn1ncc2cc(/C=C/C(=O)Nc3ccccc3)ccc21 [Compound 11, (E)-3-(1-methyl-1H-indazol-5-yl)-N-phenylacrylamide]",3.83
15,"O=C(/C=C/c1ccc2c(cnn2CC2CC2)c1)Nc1ccccc1F [Compound 2, (E)-3-(1-(cyclopropylmethyl)-1H-indazol-5-yl)-N-(2-fluorophenyl)acrylamide]",0.861
16,O=C(/C=C/c1ccc2c(cnn2CC2CC2)c1)Nc1cc(F)ccc1C(=O)O [Compound 56],3.52
17,"O=C(/C=C/c1ccc2c(cnn2CC2CC2)c1)Nc1ccccc1-c1noc(=O)[nH]1 [Compound 13, (E)-3-(1-(cyclopropylmethyl)-1H-indazol-5-yl)-N-(2-(5-oxo-4,5-dihydro-1,2,4-oxadiazol-3-yl)phenyl)acrylamide]",4.81
18,O=C(/C=C/c1ccc2c(cnn2CC2CC2)c1)Nc1sccc1C(=O)O [Compound 1],0.593
19,O=C(/C=C/c1ccc2c(cnn2CC2CC2)c1)Nc1ccc(F)cc1C(=O)O [Compound 55],8.6
20,"O=C(/C=C/c1ccc2c(cnn2CC2CC2)c1)Nc1ccccc1-c1n[nH]c(=O)o1 [Compound 14, (E)-3-(1-(cyclopropylmethyl)-1H-indazol-5-yl)-N-(2-(5-oxo-4,5-dihydro-1,3,4-oxadiazol-2-yl)phenyl)acrylamide]",5.72
21,O=C(O)c1nn(C(=O)/C=C/c2ccc3c(cnn3CC3CC3)c2)c2ccccc12 [Compound 15],6.68
22,"O=C(/C=C/c1ccc2c(cnn2CC2CC2)c1)Nc1ccccc1 [Compound 8, (E)-3-(1-(cyclopropylmethyl)-1H-indazol-5-yl)-N-phenylacrylamide]",2.08
23,"NS(=O)(=O)c1ccccc1NC(=O)/C=C/c1ccc2c(cnn2CC2CC2)c1 [Compound 18, (E)-3-(1-(cyclopropylmethyl)-1H-indazol-5-yl)-N-(2-sulfamoylphenyl)acrylamide]",7.39

# — patent publication US20260209183A1, “HETEROCYCLIC COMPOUNDS AND USES THEREOF” (CERTA THERAPEUTICS PTY LTD, priority 2022, published 2026)
